Assay results: PMC8536575, “Acute effects of the imidacloprid metabolite desnitro-imidacloprid on human nACh receptors relevant for neuronal signaling” (Archives of Toxicology, 2021)

Columns and labels:
human α7 nAChR = molecular target: T1, human α7 nAChR (Homo sapiens, UniProt P36544); assay: Two-electrode voltage-clamp recordings, Xenopus laevis oocytes expressing human α7 nAChR; assay type: cell-based
T1 construct: expressed in transfected cells; host or cells: Xenopus laevis oocytes, injection of 30 ng mRNA (pCDNA3.1, T7 transcript)

human α4β2 (LS) nAChR = molecular target: T2, human α4β2 (LS) nAChR (Homo sapiens, UniProt P17787+P43681); assay: Two-electrode voltage-clamp recordings, Xenopus laevis oocytes expressing human α4β2 (LS) nAChR; assay type: cell-based
T2 construct: expressed in transfected cells; host or cells: Xenopus laevis oocytes, mRNA injection, 10 ng α4 and 1 ng β2
Excerpt: The human α7 nAChR subunit was cloned in the pCDNA3.1 vector.
For the generation of the mRNA for injection, the plasmid DNAs of α3, α4, β2, and β4 were linearized with the NotI restriction endonuclease (New England Biolabs) and the plasmid DNA of α7 was linearized with the XbaI restriction endonuclease (New England Biolabs). The mRNAs of α3, α4, β2, and β4 were generated by in vitro transcription using the mMESSAGE mMACHINE SP6 Transcription Kit (Invitrogen). For the generation of α7 mRNA, the mMESSAGE mMACHINE T7 Transcription Kit (Invitrogen) was used. For the separation of the DNA and mRNA, a phenol–chloroform extraction (Chomczynski and Sacchi [2006]) was performed. The mRNA was then obtained by ethanol precipitation from the aqueous phase; for quantification, the BioPhotometer (Eppendorf) was used.
The recordings of human α7, α3β4, α4β2, and α4β4 nAChRs expressed in Xenopus laevis oocytes (EcoCyte Bioscience) were performed in two-electrode voltage-clamp mode using the Roboocyte2 system and the corresponding software (version 1.4.1; Multi Channel Systems MCS). Prior to the recordings, the oocytes were maintained at 19 °C in modified Barth’s solution containing [mM]: 88 NaCl, 1 KCl, 0.33 Ca(NO3)2, 0.82 MgSO4, 2.4 NaHCO3, 0.41 CaCl2, 5 Tris, 100 U/ml penicillin, 100 µg/ml streptomycin, pH 7.4.
To express human α7 nAChR, we injected 50 nl of mRNA solution (30 ng mRNA) per oocyte, using the Roboinject and the corresponding software (version 1.2.1; Multi Channel Systems MCS). […]
The baseline correction of voltage-clamp oocyte recordings was performed with the Roboocyte2 + software (version 1.4.3; Multi Channel Systems MCS, Germany). The maximal current influx and further analysis were executed in scripts written in R. In the antagonist experiments with oocytes, the maximal inward current was determined for the last response of each period (control, three antagonist concentrations, and washout).

T1 sequence (P36544 23-502): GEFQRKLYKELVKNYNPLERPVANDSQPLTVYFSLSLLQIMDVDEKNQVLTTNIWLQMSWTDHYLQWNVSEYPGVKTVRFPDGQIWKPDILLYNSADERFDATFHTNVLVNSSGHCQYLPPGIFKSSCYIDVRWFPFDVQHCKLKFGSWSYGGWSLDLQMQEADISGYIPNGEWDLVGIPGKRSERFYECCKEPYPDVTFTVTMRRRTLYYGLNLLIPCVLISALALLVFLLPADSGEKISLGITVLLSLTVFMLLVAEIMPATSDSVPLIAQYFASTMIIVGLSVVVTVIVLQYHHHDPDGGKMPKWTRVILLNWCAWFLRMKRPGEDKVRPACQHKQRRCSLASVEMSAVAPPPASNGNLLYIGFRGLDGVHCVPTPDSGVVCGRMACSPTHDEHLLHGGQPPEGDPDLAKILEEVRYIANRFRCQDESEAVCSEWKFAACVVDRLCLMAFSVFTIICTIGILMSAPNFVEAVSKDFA
T2 sequence (P43681 27-627): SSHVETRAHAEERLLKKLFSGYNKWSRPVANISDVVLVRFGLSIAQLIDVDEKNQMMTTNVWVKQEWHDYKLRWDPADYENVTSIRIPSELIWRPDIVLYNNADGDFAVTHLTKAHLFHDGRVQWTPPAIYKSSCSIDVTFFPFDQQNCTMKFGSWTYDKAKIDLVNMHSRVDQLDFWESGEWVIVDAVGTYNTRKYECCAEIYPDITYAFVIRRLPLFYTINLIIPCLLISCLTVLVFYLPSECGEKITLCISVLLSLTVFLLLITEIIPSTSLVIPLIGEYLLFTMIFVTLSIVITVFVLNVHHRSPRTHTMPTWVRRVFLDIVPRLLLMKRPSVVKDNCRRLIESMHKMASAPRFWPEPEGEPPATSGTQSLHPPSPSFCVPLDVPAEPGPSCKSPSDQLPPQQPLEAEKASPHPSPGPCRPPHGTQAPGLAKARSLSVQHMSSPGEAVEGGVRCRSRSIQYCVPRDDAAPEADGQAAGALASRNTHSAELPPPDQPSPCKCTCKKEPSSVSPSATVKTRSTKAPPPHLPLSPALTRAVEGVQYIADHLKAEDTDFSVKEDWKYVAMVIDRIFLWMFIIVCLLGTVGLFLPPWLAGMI
T2 sequence (P17787 26-502): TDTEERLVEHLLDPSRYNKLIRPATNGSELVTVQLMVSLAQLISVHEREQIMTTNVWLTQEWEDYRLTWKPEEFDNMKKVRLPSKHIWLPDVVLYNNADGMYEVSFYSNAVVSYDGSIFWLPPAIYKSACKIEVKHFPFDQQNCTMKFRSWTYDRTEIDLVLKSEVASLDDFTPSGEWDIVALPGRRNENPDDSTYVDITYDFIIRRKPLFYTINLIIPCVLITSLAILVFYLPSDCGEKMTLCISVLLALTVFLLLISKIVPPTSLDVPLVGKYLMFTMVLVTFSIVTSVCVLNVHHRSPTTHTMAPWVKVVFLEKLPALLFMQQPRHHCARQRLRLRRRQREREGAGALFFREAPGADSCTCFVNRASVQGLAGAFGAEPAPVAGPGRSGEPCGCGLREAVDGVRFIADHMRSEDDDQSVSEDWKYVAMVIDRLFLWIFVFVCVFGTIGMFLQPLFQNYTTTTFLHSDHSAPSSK

Structure (SMILES): NC1=NCCN1Cc1ccc(Cl)nc1 [DN-IMI, desnitro-imidacloprid]
- EC50 (human α7 nAChR): 31.6 µM
- estimated maximum, % of the maximal response to nicotine (human α7 nAChR): ~ 81%
- higher potency of DN-IMI than nicotine (human α7 nAChR; EC25 comparison on the receptors other than α4β2 (HS): α7 and α3β4): about 0.6 log-steps
- absolute EC25 (human α7 nAChR; from curve-fitted concentration–response data): 7.6 µM
- estimated maximum (human α7 nAChR; normalized to nicotine (1 mM)): ~ 0.81
- Emax (human α7 nAChR; read-out: estimated maximum, % of the maximal response to nicotine): 83%
- estimated maximum (human α4β2 (LS) nAChR; normalized to nicotine (100 µM)): ~ 1.22
- EC50 (human α4β2 (LS) nAChR; read-out: relative pEC50 (inward current amplitude) (converted)): 5.01 µM
